Results reported in patent publication US20190053492A1, “SUBSTITUTED PYRIDINE COMPOUNDS AS PESTICIDES” (Bayer CropScience Aktiengesellschaft, priority 2016, published 2019).
Like-named read-outs stand apart in the source and are kept apart here.

Assays:
Phaedon cochleariae = Phaedon cochleariae spray test; format: in vivo; conditions: after 7 days, Chinese cabbage leaf discs; for pest or weed control at 500 g/ha: Phaedon cochleariae, foliar, 168 h, read-out: efficacy (beetle larvae killed)
Summary of the method: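 Larval kill read at day 7 as percent, where 100% means every larva dead and 0% none; larvae were placed on dried Brassica pekinensis leaf discs previously sprayed with the formulation (acetone/dimethylformamide solvent, alkylaryl polyglycol ether emulsifier, water).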

Spodoptera frugiperda = Spodoptera frugiperda spray test; format: in vivo; conditions: after 7 days, maize leaf discs
Summary of the method: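 Efficacy in % was scored at 7 days against armyworm caterpillars placed on dried, compound-sprayed Zea mays leaf discs. Compound was dissolved in acetone/dimethylformamide and diluted in water with 1000 ppm alkylaryl polyglycol ether. 100% means all caterpillars were killed.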

[1] = log P by HPLC on reversed-phase column (C 18), EEC Directive 79/831 Annex V.A8; format: physicochemical; conditions: 55° C.; for LOGP_HCOOH: log P (HCOOH), acidic range pH 2.7, 0.1% aqueous formic acid and acetonitrile, reversed-phase column (C 18); for LOGP_NEUTRAL: log P (neutral), HPLC reversed-phase column (C 18); for chromatographic logP: reversed-phase HPLC column (C 18)
Experimental: Temperature: 55° C. […] Called log P (HCOOH) in the table. […] Called log P (neutral) in the table.

[2] = Spodoptera frugiperda, foliar, 168 h, application rate 500 g/ha, read-out: efficacy (caterpillars killed)
[3] = pH 2.7, LC-MS acidic range, pH 2.7, 0.1% formic acid/acetonitrile, read-out: log P (acidic) / log P (HCOOH)
[4] = pH 7.8, LC-MS neutral range, pH 7.8, ammonium hydrogencarbonate/acetonitrile, read-out: log P (neutral)

Compound: N#Cc1ccc(ONC(=O)c2cc(-c3ccc(OC(F)(F)F)cc3)cc(NC(=O)C3CC3)n2)cc1 [Example I-239]
- efficacy (beetle larvae killed) (Phaedon cochleariae; application rate 100 g/ha): 83%
- efficacy (caterpillars killed) (Spodoptera frugiperda; application rate 500 g/ha): 83%
- LOGP_HCOOH [1]: 3.72
- LOGP_NEUTRAL [1]: 3.13

Compound: O=C(NCc1ccc([N+](=O)[O-])s1)c1cc(-c2ccc(OC(F)(F)F)cc2)cc(NC(=O)C2CC2)n1 [Example I-240]
- efficacy (beetle larvae killed) (Phaedon cochleariae; application rate 500 g/ha): 100%
- efficacy (caterpillars killed) (Spodoptera frugiperda; application rate 100 g/ha): 83%
- efficacy (caterpillars killed) (Spodoptera frugiperda; application rate 500 g/ha): 100%
- LOGP_HCOOH [1]: 4.10
- LOGP_NEUTRAL [1]: 4.04

Compound: N#Cc1ccc(CNC(=O)c2cc(-c3ccc(OC(F)(F)F)cc3)cc(NC(=O)CC(F)(F)F)n2)cc1 [Example I-241]
- efficacy (beetle larvae killed) (Phaedon cochleariae; application rate 500 g/ha): 100%
- efficacy (caterpillars killed) (Spodoptera frugiperda; application rate 100 g/ha): 100%
- efficacy (caterpillars killed) (Spodoptera frugiperda; application rate 500 g/ha): 100%
- LOGP_HCOOH [1]: 3.90
- LOGP_NEUTRAL [1]: 3.96

Compound: O=C(NC1CC1)c1cc(-c2ccc(C(F)(F)C(F)(F)F)c(F)c2)cc(NC(=O)C2CC2)n1 [Example I-243]
- efficacy (beetle larvae killed) (Phaedon cochleariae; application rate 100 g/ha): 100%
- efficacy (beetle larvae killed) (Phaedon cochleariae; application rate 500 g/ha): 100%
- efficacy (caterpillars killed) (Spodoptera frugiperda; application rate 100 g/ha): 100%
- efficacy (caterpillars killed) (Spodoptera frugiperda; application rate 500 g/ha): 100%
- LOGP_HCOOH [1]: 3.94

Compound: COC1(NC(=O)c2cc(-c3ccc(C(F)(F)C(F)(F)F)c(F)c3)cc(NC(=O)C3CC3)n2)CC1 [Example I-244]
- efficacy (beetle larvae killed) (Phaedon cochleariae; application rate 100 g/ha): 100%
- efficacy (beetle larvae killed) (Phaedon cochleariae; application rate 500 g/ha): 100%
- efficacy (caterpillars killed) (Spodoptera frugiperda; application rate 100 g/ha): 100%
- efficacy (caterpillars killed) (Spodoptera frugiperda; application rate 500 g/ha): 100%
- LOGP_HCOOH [1]: 4.08
- LOGP_NEUTRAL [1]: 4.08

Compound: O=C(NCCC(F)(F)F)c1cc(-c2ccc(C(F)(F)C(F)(F)F)c(F)c2)cc(NC(=O)C2CC2)n1 [Example I-246]
- efficacy (beetle larvae killed) (Phaedon cochleariae; application rate 100 g/ha): 83%
- efficacy (beetle larvae killed) (Phaedon cochleariae; application rate 500 g/ha): 100%
- efficacy (caterpillars killed) (Spodoptera frugiperda; application rate 100 g/ha): 100%
- efficacy (caterpillars killed) (Spodoptera frugiperda; application rate 500 g/ha): 100%
- LOGP_HCOOH [1]: 4.37
- LOGP_NEUTRAL [1]: 4.32

Compound: N#Cc1cc(F)c(CNC(=O)c2cc(-c3ccc(C(F)(F)C(F)(F)F)c(F)c3)cc(NC(=O)C3CC3)n2)c(F)c1 [Example I-248]
- efficacy (beetle larvae killed) (Phaedon cochleariae; application rate 100 g/ha): 100%
- efficacy (beetle larvae killed) (Phaedon cochleariae; application rate 500 g/ha): 100%
- efficacy (caterpillars killed) (Spodoptera frugiperda; application rate 100 g/ha): 100%
- efficacy (caterpillars killed) (Spodoptera frugiperda; application rate 500 g/ha): 100%
- LOGP_HCOOH [1]: 4.55

Compound: N#Cc1ccc(CNC(=O)c2cc(-c3ccc(C(F)(F)C(F)(F)F)c(F)c3)cc(NC(=O)C3CC3)n2)c(F)c1 [Example I-251]
- efficacy (beetle larvae killed) (Phaedon cochleariae; application rate 100 g/ha): 83%
- efficacy (beetle larvae killed) (Phaedon cochleariae; application rate 500 g/ha): 100%
- efficacy (caterpillars killed) (Spodoptera frugiperda; application rate 100 g/ha): 100%
- efficacy (caterpillars killed) (Spodoptera frugiperda; application rate 500 g/ha): 100%
- LOGP_HCOOH [1]: 4.45
- LOGP_NEUTRAL [1]: 4.38

Compound: N#Cc1ccc(/C=N/NC(=O)c2cc(-c3ccc(OC(F)(F)F)cc3)cc(NC(=O)C3CC3)n2)cc1 [Example I-252, N-(6-{[(2E)-2-(4-Cyanobenzylidene)hydrazino]carbonyl}-4-[4-(trifluoromethoxy)phenyl]pyridin-2-yl)cyclopropanecarboxamide]
- pest or weed control at 500 g/ha (Phaedon cochleariae; application rate 500 g/ha): 100%
- pest or weed control at 100 g/ha (Spodoptera frugiperda; Spodoptera frugiperda, foliar, 168 h, application rate 100 g/ha, read-out: efficacy (caterpillars killed)): 83%
- pest or weed control at 500 g/ha (Spodoptera frugiperda; [2]): 100%
- LOGP_HCOOH [1]: 3.88
- LOGP_NEUTRAL [1]: 3.83
- chromatographic logP [1, 3]: 3.88
- chromatographic logP [1, 4]: 3.83

Compound: CC(C)(CS(C)(=O)=O)NC(=O)c1cc(-c2ccc(C(F)(F)C(F)(F)F)c(F)c2)cc(NC(=O)C2CC2)n1 [Example I-253]
- efficacy (beetle larvae killed) (Phaedon cochleariae; application rate 100 g/ha): 100%
- efficacy (beetle larvae killed) (Phaedon cochleariae; application rate 500 g/ha): 100%
- efficacy (caterpillars killed) (Spodoptera frugiperda; application rate 100 g/ha): 100%
- efficacy (caterpillars killed) (Spodoptera frugiperda; application rate 500 g/ha): 100%
- LOGP_HCOOH [1]: 3.96
- LOGP_NEUTRAL [1]: 3.91

Compound: N#Cc1ccc(CNC(=O)c2cc(-c3ccc(OC(F)(F)C(F)C(F)(F)F)cc3)cc(NC(=O)C3CC3)n2)cc1 (stereo not drawn) [Example I-254]
- efficacy (beetle larvae killed) (Phaedon cochleariae; application rate 100 g/ha): 100%
- efficacy (beetle larvae killed) (Phaedon cochleariae; application rate 500 g/ha): 100%
- efficacy (caterpillars killed) (Spodoptera frugiperda; application rate 100 g/ha): 83%
- efficacy (caterpillars killed) (Spodoptera frugiperda; application rate 500 g/ha): 100%
- LOGP_HCOOH [1]: 4.03
- LOGP_NEUTRAL [1]: 3.98

Compound: N#Cc1ccc(CNC(=N)c2cc(-c3ccc(OC(F)(F)F)cc3)cc(NC(=O)C3CC3)n2)cc1 [Example I-258, N-{6-[N-(4-Cyanobenzyl)carbamimidoyl]-4-[4-(trifluoromethoxy)phenyl]pyridin-2-yl}cyclopropanecarboxamide]
- pest or weed control at 500 g/ha (Phaedon cochleariae; application rate 500 g/ha): 83%
- pest or weed control at 500 g/ha (Spodoptera frugiperda; [2]): 83%
- LOGP_HCOOH [1]: 2.08
- LOGP_NEUTRAL [1]: 4.24
- chromatographic logP [1, 3]: 2.08
- chromatographic logP [1, 4]: 4.24

Compound: N#Cc1ccc(NC(=N)c2cc(-c3ccc(OC(F)(F)F)cc3)cc(NC(=O)C3CC3)n2)cc1 [Example I-261]
- efficacy (beetle larvae killed) (Phaedon cochleariae; application rate 500 g/ha): 83%
- efficacy (caterpillars killed) (Spodoptera frugiperda; application rate 100 g/ha): 100%
- efficacy (caterpillars killed) (Spodoptera frugiperda; application rate 500 g/ha): 100%
- LOGP_HCOOH [1]: 2.09
- LOGP_NEUTRAL [1]: 4.19
